Data taken from patent publication US10351598B2, “Peptide with anti-obesity and anti-diabetic efficacy and use thereof” (CAREGEN CO., LTD., priority 2016, dated 2019).
“And” between values parts separate entries of the source, which are not always exact repeats. Identical values can stand only once. Blank lines part the entries; values can stand above or below the substance they belong to.

Experiments:
CGI-58 = CGI-58 RT-PCR; assay type: cell-based; settings: intracellular
Description: (§1) Total RNA was extracted using Qiagen RNeasy kit. For synthesis of single-stranded DNA from RNA, […] of RNA, […] of random hexamer, and DEPC-treated water were added, followed by reaction for 5 minutes at 65° C. 5× first strand buffer, 0.1 M DTT, 10 mM of dNTP, and reverse transcriptase were added to reach a total volume of […], followed by reaction at 42° C. for 1 hour. After heating at 95° C. for 5 minutes again, 10 ml of distilled water was added to make a final volume, […], of cDNA.
(§2) PCR was conducted by mixing 3 ml of cDNA, 10 pmole of CGI 58 gene-specific primer, 10× Tag buffer, 10 mM dNTP, and i-Tag DNA synthetase. PCR conditions were: 94° C. for 30 seconds, 55-56° C. for 30 seconds, and 72° C. for 30 seconds. Cycle number genes were analyzed in the conditions in which the PCR results could be exponentially amplified. 5 ml of PCR product was obtained, electrophoresed on 1% agarose gel, and stained with ethidium bromide.

AMPK-α1 = AMPK-α1 RT-PCR in insulin resistance conditions (TNF-α); assay type: cell-based; settings: reduced by TNF-α treatment, peptide treatment 16 hours
Description: as §1, §2
(§3) After the insulin resistance conditions were configured by TNF-α treatment, the peptide treatment was conducted for 16 hours, followed by collection and then the resultant product was collected and the changes of respective factors were examined by RT-PCR. RT-PCR conditions are the same as in example 3.

mouse adipose tissue [1] = assay: Glycerol assay (lipolysis induction); assay type: cell-based; settings: compared with control group NC; for secretion of glycerol: mouse adipose tissue, cultured 48-72 hours with peptide
Excerpt: Adipocytes store extra energy in the form of triglycerides in lipid droplets, and when energy is needed, the triglycerides are broken down into fatty acids and glycerols by enzymes, such as adipose triglyceride lipase, HSL, and monoglyceride lipase, to produce energy, or the triglycerides are used in cell signaling or lipid synthesis. The measurement of free glycerol release is for evaluating the lytic effect of the glycerides accumulated in fact cells.
In order to measure the lipolytic effect by the peptides of the present invention, the mouse adipose tissue was taken and cultured in 100-mm dish (DMEM) for one day. Thereafter, the adipose tissue was cut into equal weight, transferred onto 24-well plate, treated with the peptides, and cultured for 48-72 hours. Each 100 ul of the medium was collected according to the treatment period, and subjected to glycerol assay.

pHSL = assay: Immunohistochemical staining with anti-pHSL antibody (lipolysis induction); assay type: cell-based; settings: mouse adipose tissue, 48-72 hours
Excerpt: In order to investigate a mechanism by which the peptides of the present invention stimulate the lysis of triglycerides to suppress the lipid accumulation in adipocytes, the effect of the peptides of the present invention on HSL gene expression was examined. HSL enzyme is known as a lipolytic enzyme that breaks down triglycerides into free fatty acids and glycerols when the HSL enzyme breaks down lipids in the adipose tissue.
The mouse adipose tissue was taken and cultured in 100-mm dish (DMEM) for one day. Thereafter, the adipose tissue was cut into equal weight, transferred onto 24-well plate, treated with the peptides, and cultured for 48-72 hours. Each tissue slice was subjected to immunohistochemical staining using anti-pHSL antibody, and photographed by a fluorescent microscope.

adiponectin = assay: Adiponectin RT-PCR in insulin resistance conditions (TNF-α); assay type: cell-based; settings: reduced by TNF-α treatment, peptide treatment 16 hours
Description: as §1, §2, §3

GLUT4 = GLUT4 RT-PCR in insulin resistance conditions (TNF-α); assay type: cell-based; settings: reduced by TNF-α treatment, peptide treatment 16 hours
Description: as §1, §2, §3

3T3-L1 cells = assay: Oil red O staining (lipid accumulation inhibition); assay type: cell-based; settings: day 9 of differentiation induction
Description: In order to measure the lipid accumulation inhibitory effect by the peptides of the present invention, 3T3-L1 cells were seeded in 24-well plate at 2×10^4 cells/well, followed by culture, and then the medium was exchanged with a differentiation medium containing 10 ug/ml insulin, 0.1 uM dexamethasone, and 0.5 uM IBMX, followed by treatment with the peptides having different concentrations.
Thereafter, the medium was exchanged into a medium containing 10 ug/ml insulin every two days, and on day 9 of differentiation induction, an oil-red-red O staining assay was conducted.
The cells were washed with PBS, immobilized by the treatment with 4% para-form aldehyde for 10 minutes, washed with distilled water, and then cultured in 60% isopropanol for 5-10 minutes. The immobilized cells were stained with an oil red solution [1% Oil Red in isopropanol was diluted in dH2O in ratio of 6:4 (vol/vol)] for 30 minutes, and then again washed with PBS. The stained cells were observed by an optical microscope, followed by washing with distilled water, and 1 ml of 100% isopropanol was added thereto, followed by stirring at 4° C. The next day, quantification was conducted at 510 nm.

[2] = system: C57BL/6J mice fed with a high-fat diet; assay: Anti-diabetic efficacy evaluation (in vivo), blood glucose after oral glucose; design: blood glucose, individual animal / blood glucose, Mean: unit not given here; settings: for blood glucose, Mean / blood glucose, individual animal: 60% fat diet mice; for blood glucose increase by glucose: high-fat diet mice, compared with the NC group
Excerpt: 6-week-old C57BL/6J mice as experimental animals were purchased from Central Lab. Animal Inc. (Seoul, Korea), and then were used for experiments after acclimatization with a normal diet for 1 week. A high-fat feed was used from Research Diets, inc. (#product D12492).
The experimental animals were divided into a total of four groups, and three mice for each group were raised for 12 weeks.
In addition, the experimental animals were divided into a total of […], and three mice for each group were raised for 12 weeks.
After the pre-treatment with a peptide for 30 minutes, glucose (60 mg/300 ul distilled water) were orally administered, and then the blood glucose lowering effect over time was examined. The results are shown in FIGS. 6a to 6b and tables 5 and 6.

mouse adipose tissue [3] = assay: Histological analysis, H&E staining (lipolysis induction); assay type: cell-based; settings: as the concentration of the peptide increased
Description: The mouse adipose tissue was taken and cultured in 100-mm dish (DMEM) for one day. Thereafter, the adipose tissue was cut into equal weight, transferred onto 24-well plate, treated with the peptides, and cultured for 48-72 hours. Each tissue slice was subjected to H&E staining. The photo files obtained from microscopic photographing were divided into compartments through Image J, and analyzed using a program that can compare the sizes of each compartment. Through this, the area of the total number of cells can be obtained, and the average area obtained by dividing the area by the total number of cells can also be obtained. The results may be expressed differently depending on the degree of staining. However, correction can be made by adjusting the threshold value in the beginning, and the results were obtained after the cells with relatively small areas from the comparison with the original file were removed.

IRS-1 = IRS-1 RT-PCR in insulin resistance conditions (TNF-α); assay type: cell-based; settings: reduced by TNF-α treatment, peptide treatment 16 hours
Description: as §1, §2, §3

[4] = 0 min, IP 2 mg/ml 300 ul, Table 6
[5] = 0 min, oral 2 mg/ml 300 ul, Table 6
[6] = 10 min, IP 2 mg/ml 300 ul, Table 6
[7] = 10 min, oral 2 mg/ml 300 ul, Table 6
[8] = 40 min, IP 2 mg/ml 300 ul, Table 6
[9] = 40 min, oral 2 mg/ml 300 ul, Table 6
[10] = 80 min, IP 2 mg/ml 300 ul, Table 6
[11] = 80 min, oral 2 mg/ml 300 ul, Table 6
[12] = 140 min, IP 2 mg/ml 300 ul, Table 6
[13] = 140 min, oral 2 mg/ml 300 ul, Table 6
[14] = 200 min, IP 2 mg/ml 300 ul, Table 6
[15] = 200 min, oral 2 mg/ml 300 ul, Table 6
[16] = 0 min, oral 2 mg/ml 300 ul, Table 5
[17] = 30 min, oral 2 mg/ml 300 ul, Table 5
[18] = 60 min, oral 2 mg/ml 300 ul, Table 5
[19] = 90 min, oral 2 mg/ml 300 ul, Table 5
[20] = 120 min, oral 2 mg/ml 300 ul, Table 5

- expression of hormone sensitive lipase (pHSL) (pHSL): increased
Substance: His-Glu-Thr-Phe-Glu (HETFE) [SEQ ID NO: 2]
- expression of the lipolysis factor CGI-58 (CGI-58): increased
- expression of AMPK-α1 (AMPK-α1): again increased
- increase of secretion of glycerol (mouse adipose tissue [1]; high-concentration peptide treatment): 22%
- secretion of glycerol (mouse adipose tissue [1]): increased
- expression of adiponectin (adiponectin): again increased
- expression of the glucose transporter GLUT4 (GLUT4): again increased
- degree of lipid accumulation in the cells (3T3-L1 cells): reduced
- blood glucose, Mean [2, 4]: 155.00
- blood glucose, individual animal [2, 4]: 145.00 and 165.00
- blood glucose, Mean [2, 5]: 162
- blood glucose, individual animal [2, 5]: 159.00 and 165.00
- blood glucose, Mean [2, 6]: 197.00
- blood glucose, individual animal [2, 6]: 203.00 and 190.00
- blood glucose, Mean [2, 7]: 191
- blood glucose, individual animal [2, 7]: 188.00 and 193.00
- blood glucose, Mean [2, 8]: 179.00
- blood glucose, individual animal [2, 8]: 162.00 and 195.00
- blood glucose, Mean [2, 9]: 161
- blood glucose, individual animal [2, 9]: 164.00 and 157.00
- blood glucose, Mean [2, 10]: 164.00
- blood glucose, individual animal [2, 10]: 170.00 and 158.00
- blood glucose, Mean [2, 11]: 155
- blood glucose, individual animal [2, 11]: 163.00 and 147.00
- blood glucose, Mean [2, 12]: 123.00
- blood glucose, individual animal [2, 12]: 130.00 and 115.00
- blood glucose, Mean [2, 13]: 129
- blood glucose, individual animal [2, 13]: 122.00 and 135.00
- blood glucose, Mean [2, 14]: 112.00
- blood glucose, individual animal [2, 14]: 129.00 and 94.00
- blood glucose, Mean [2, 15]: 122
- blood glucose, individual animal [2, 15]: 118.00 and 126.00
- blood glucose increase by glucose [2]: reduced

- expression of hormone sensitive lipase (pHSL) (pHSL): increased
- expression of the insulin receptor signaling protein IRS-1 (IRS-1): again increased
Substance: Lys-Glu-Arg-Lys-Ser (KERKS) [SEQ ID NO: 1]
- expression of the lipolysis factor CGI-58 (CGI-58): increased
- expression of AMPK-α1 (AMPK-α1): again increased
- lipid area (mouse adipose tissue [3]): reduced
- number of adipocytes (mouse adipose tissue [3]): increased
- secretion of glycerol (mouse adipose tissue [1]): increased
- expression of adiponectin (adiponectin): again increased
- expression of the glucose transporter GLUT4 (GLUT4): again increased
- degree of lipid accumulation in the cells (3T3-L1 cells): reduced
- blood glucose, Mean [2, 16]: 134.67
- blood glucose, individual animal [2, 16]: 145.00 and 165.00
- blood glucose, Mean [2, 17]: 163.67
- blood glucose, individual animal [2, 17]: 203.00 and 190.00
- blood glucose, Mean [2, 18]: 142.00
- blood glucose, individual animal [2, 18]: 162.00 and 195.00
- blood glucose, Mean [2, 19]: 142.67
- blood glucose, individual animal [2, 19]: 170.00 and 158.00
- blood glucose, Mean [2, 20]: 125.67
- blood glucose, individual animal [2, 20]: 130.00 and 115.00
- blood glucose increase by glucose [2]: reduced
